Test results published in patent EP4775208A1, “USE OF PRMT5 INHIBITOR IN TREATMENT OF TUMORS OR CANCERS” (Apeiron Therapeutics (Hong Kong) Ltd., priority 2023, dated 2025).

What was measured:
Assay type in all cases: cell-based
[1] = tested on: U87MG MTAP(-/-) cells; assay: Inhibition of proliferation of U87MG MTAP(-/-) cells (CellTiter-Glo); settings: cell proliferation, 6 days
Description: Test 7: Assay for Inhibitory Activity of Compounds against U87MG MTAP(-/-) Cell Proliferation
Materials and Cells: The U87MG MTAP(-/-) cell line was purchased from ATCC (USA). Cell culture media, fetal bovine serum (FBS), and penicillin-streptomycin were purchased from Thermo Fisher Scientific (USA). 384-well plates were purchased from PerkinElmer (USA). The CellTiter-Glo assay kit was purchased from Promega (USA).
Cell Culture: U87MG MTAP(-/-) cells were cultured in a medium supplemented with 10% fetal bovine serum (FBS) and 1% penicillin-streptomycin at 37°C with 5% CO2. Only cells in the logarithmic growth phase were used for experiments.
Cell Proliferation Inhibition Assay: The antiproliferative activity of the compounds against U87MG MTAP(-/-) cells was assessed using the CellTiter-Glo assay kit. Cell suspensions were adjusted to the appropriate density and seeded into 384-well plates at a volume of 40 µL per well, then incubated overnight at 37°C with 5% CO2. Compounds (40 nL) were added to each well to achieve final concentrations ranging from 0 to 10,000 nM (starting concentration 10,000 nM, 3-fold serial dilutions, 10 dose points), with a final DMSO concentration of […]. The cell plates were incubated at 37°C with 5% CO2 for 6 days. Subsequently, 40 µL of CellTiter-Glo reagent was added to measure cell viability. Paclitaxel was used as a control compound.

[2] = tested on: HCT-116 MTAP wild-type cells; assay: Inhibition of proliferation of HCT-116 MTAP wild-type cells (Cell-Titer Glo); settings: 8 days
Procedure, shortened: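 MTAP wild-type HCT-116 cells were seeded, cultured overnight and then exposed to compound from 10,000 nM down in a 10-point, 3-fold series (0.1% DMSO). Plates were incubated 8 days at 37°C, 5% CO2. Proliferation was read by Cell-Titer Glo viability luminescence.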

[3] = tested on: HCT-116 MTAP(-/-) deficient cells; assay: Inhibition of proliferation of HCT-116 MTAP(-/-) deficient cells (Cell-Titer Glo); settings: 8 days
Procedure, shortened: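 Cells in log-phase growth, RPMI-1640 with 10% FBS, seeded and left overnight at 37°C, 5% CO2. Compound tested at 0–10,000 nM (10 points, 3-fold, 0.1% DMSO) for 8 days at 37°C, 5% CO2. Viability read by CellTiter-Glo luminescence.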

Row | Compound | IC50 [1] [nM] | IC50 [2] [nM] | IC50 [3] [nM] | IC50 ([1]; Homo sapiens, U-87 MG, 144 h) [nM] | IC50 ([2]; Homo sapiens, HCT-116, 192 h) [nM] | IC50 ([3]; Homo sapiens, HCT-116, 192 h) [nM]
1 | 4-amino-N-methyl-N-(6-(trifluoromethyl)-2, 3-dihydrobenzo[b]thi ophen-3-yl)imidazo[1, 5-a]quinoxaline-8-car boxamide [Example 43] | 322 | 2990 | 22.4 |  |  | 
2 | C[C@H]1OC[C@@H](N(C)C(=O)c2ccc3nc(N)c4cncn4c3c2)c2ccc(F)cc21 (single isomer, unassigned) [Example 96] |  |  |  | 91.1 | 1260 | 6.6
3 | C[C@H]1OC[C@@H](N(C)C(=O)c2cc3c(cn2)nc(N)c2cncn23)c2ccc(C(F)(F)F)cc21 (single isomer, unassigned) [Example 98] |  |  |  | 14.2 | 114 | 1.4
4 | CN(C(=O)c1ccc2nc(N)c3cncn3c2c1)[C@@H]1COc2cc(S(F)(F)(F)(F)F)ccc21 (single isomer, unassigned) [Example 104] |  |  |  | 28.8 |  | 
5 | C[C@H]1OC[C@@H](N(C)C(=O)c2ccc3nc(N)c4cncn4c3c2)c2ccc(C(F)(F)F)cc21 (single isomer, unassigned) [Example 106] |  |  |  | 10 | 145 | 3.5
6 | Cc1cc2nc(N)c3cncn3c2cc1C(=O)N(C)[C@@H]1COc2cc(C(F)(F)F)ccc21 [Example 15, (S)-4-amino-N,7-dime thyl-N-(6-(trifluoromethyl)-2,3-dihydrobenzofuran-3-yl)imidazo[1 ,5-a]quinoxaline-8-car boxamide] |  |  |  | 19.8 | 282 | 3.5
7 | CC1OC[C@@H](N(C)C(=O)c2ccc3nc(N)c4cncn4c3c2)c2ccc(-c3cnn(C)c3)cc21 (stereo partly drawn) [Example 22, 4-amino-N-methyl-N-((4S)-1-methyl-7-(1-methyl-1H-pyrazol-4-yl)isochroman-4-yl)i midazo[1,5-a]quinoxa line-8-carboxamide] |  |  |  | 81.2 | 1690 | 5.1
8 | CN(C(=O)c1cc2c(cc1F)nc(N)c1cncn12)[C@@H]1COc2cc(-c3cnn(C(F)(F)F)c3)ccc21 [Example 33, (S)-4-amino-7-fluoro-N-methyl-N-(6-(1-(trifluoromethyl)-1H-pyrazol-4-yl)-2,3-dihydrobenzofuran-3-yl)imid azo[1,5-a]quinoxaline-8-carboxamide] |  |  |  | 81.7 | 2660 | 15.1
9 | CN(C(=O)c1ccc2nc(N)c3c(Br)ncn3c2c1)[C@@H]1COc2cc(C(F)(F)F)ccc21 [Example 127, (S)-4-amino-3-bromo-N-methyl-N-(6-(trifluoromethyl)-2,3-dihydrobenzofuran-3-yl)imidazo[1,5-a]quinoxaline-8-carboxamide] |  |  |  |  | 9900 | 100
10 | CN(C(=O)c1ccc2nc(N)c3c(CO)ncn3c2c1)[C@@H]1COc2cc(C(F)(F)F)ccc21 [Example 128, (S)-4-amino-3-(hydroxymethyl)-N-methyl-N-(6-(trifluoromethyl)-2,3-dihydrobenzofuran-3-yl)imidazo[1,5-a]quinoxaline-8-carboxamide] |  |  |  |  | > 10000 | 26
11 | CN(C(=O)c1cc2c(cc1F)nc(N)c1cncn12)C1CSc2cc(C(F)(F)F)ccc21 (stereo not shown) [Example 129, 4-amino-7-fluoro-N-methyl-N-(6-(trifluoromethyl)-2,3-dihydrobenzo[b]thiophen-3-yl) imidazo[1,5-a]quinox aline-8-carboxamide] |  |  |  |  | 2680 | 14.5
12 | CN(C(=O)c1ccc2nc(N)c3c(C#N)ncn3c2c1)[C@@H]1COc2cc(C(F)(F)F)ccc21 [Example 131, (S)-4-amino-3-cyano-N-methyl-N-(6-(trifluoromethyl)-2,3-dihydrobenzofuran-3-yl)imidazo[1,5-a]quinoxaline-8-carboxamide] |  |  |  |  | > 10000 | > 3000
13 | CN(C(=O)c1ccc2nc(N)c3c(C(N)=O)ncn3c2c1)[C@@H]1COc2cc(C(F)(F)F)ccc21 [Example 132, (S)-4-amino-N8-methyl-N8-(6-(trifluoromethyl)-2,3-dihydrobenzofuran-3-yl)imidazo[1,5-a]quinoxaline-3,8-dicarboxamide] |  |  |  |  | > 10000 | > 3000
14 | (R)-4-amino-7-fluoro-N-methyl-N-(7-(1-(tri fluoromethyl)-1H-pyr azol-4-yl)chroman-4-ylimidazo[1,5-a]quin oxaline-8-carboxamid e [Example 113] |  | > 10000 | 88.1 |  |  | 
15 | (R)-4-amino-N-(6-bromo-2,3-dihydrobenzofuran-3-yl)-N-cyclopropylimidazo[1,5-a]quinoxaline-8-carboxamide [Example 81] |  | 2360 | 1790 |  |  | 
16 | (R)-4-amino-N-(6-cya no-2,3-dihydrobenzof uran-3-yl)-N-cyclopro pylimidazo[1,5-a]quin oxaline-8-carboxamid e [Example 91] |  | > 20000 | 2180 |  |  | 
17 | (R)-4-amino-N-cyclo propyl-N-(6-(trifluoro methyl)-2,3-dihydrob enzofuran-3-yl)imidaz o[1,5-a]pyrido[3,4-e]p yrazine-8-carboxamid e [Example 87] |  | 10800 | 9030 |  |  | 
18 | (R)-4-amino-N-cyclo propyl-N-(6-(trifluoro methyl)-2,3-dihydrob enzofuran-3-yl)imidaz o[1,5-a]quinoxaline-8 -carboxamide [Example 83] |  | 4700 | 2640 |  |  | 
19 | (R)-4-amino-N-methy 1-N-(6-(pentafluoro-16 -sulfaneyl)-2,3-dihydr obenzofuran-3-yl)imi dazo[1,5-a]quinoxalin e-8-carboxamide [Example 103] |  | 6260 | 931 |  |  | 
20 | (R)-4-amino-N-methy 1-N-(6-(trifluoromethy 1)-2,3-dihydrofuro[2,3 -b]pyridin-3-yl)imida zo[1,5-a]quinoxaline-8-carboxamide [Example 89] |  | > 10000 | > 3000 |  |  | 
21 | (S)-4-amino-N-(6-(cy clopropylsulfonyl)-2,3 -dihydrobenzo[b]thio phen-3-yl)-N-methyli midazo[1,5-a]quinoxa line-8-carboxamide [Example 133] |  | > 10000 | 71.4 |  |  | 
22 | (S)-4-amino-N-(6-bromo-2,3-dihydrobenzofuran-3-yl)-N-cyclopropylimidazo[1,5-a]quinoxaline-8-carboxamide [Example 82] |  | 1920 | 52.9 |  |  | 
23 | (S)-4-amino-N-(6-chl oro-2,3-dihydrobenzo furan-3-yl)-N-methyli midazo[1,5-a]quinoxa line-8-carboxamide [Example 70] |  | 3890 | 54 |  |  | 
24 | (S)-4-amino-N-(6-cya no-2,3-dihydrobenzof uran-3-yl)-N-cyclopro pylimidazo[1,5-a]quin oxaline-8-carboxamid e [Example 92] |  | 4750 | 46.6 |  |  | 
25 | (S)-4-amino-N-cyclop ropyl-N-(6-(trifluoro methyl)-2,3-dihydrob enzofuran-3-yl)imidaz o[1,5-a]pyrido[3,4-e]p yrazine-8-carboxamid e [Example 88] |  | 1850 | 24.1 |  |  | 
26 | (S)-4-amino-N-methy 1-N-(6-(trifluoromethy 1)-2,3-dihydrofuro[2,3 -b]pyridin-3-yl)imida zo[1,5-a]quinoxaline-8-carboxamide [Example 90] |  | > 10000 | 36.4 |  |  | 
